Source: patent publication US20250163047A1, “HETEROCYCLIC COMPOUNDS, COMPOSITIONS THEREOF, AND METHODS OF TREATMENT THEREWITH” (BeiGene, Ltd., priority 2022, published 2025)

How the values were obtained:
Cbl-b (aa36-427) = molecular target: T1, Cbl-b (aa36-427) (Homo sapiens, UniProt Q13191); experiment: Co-expressed Cbl-b with BirA biochemical assay (CBLB/E2-Ub binding, HTRF); conditions: 0.6 nM Cbl-b co-expressed with BirA, HTRF; read-out: co-express CBLB/E2-Ub-binding assay IC50
T1 construct: Cbl-b (aa36-427, in-house); made in house
T1 sequence (Q13191 36-427): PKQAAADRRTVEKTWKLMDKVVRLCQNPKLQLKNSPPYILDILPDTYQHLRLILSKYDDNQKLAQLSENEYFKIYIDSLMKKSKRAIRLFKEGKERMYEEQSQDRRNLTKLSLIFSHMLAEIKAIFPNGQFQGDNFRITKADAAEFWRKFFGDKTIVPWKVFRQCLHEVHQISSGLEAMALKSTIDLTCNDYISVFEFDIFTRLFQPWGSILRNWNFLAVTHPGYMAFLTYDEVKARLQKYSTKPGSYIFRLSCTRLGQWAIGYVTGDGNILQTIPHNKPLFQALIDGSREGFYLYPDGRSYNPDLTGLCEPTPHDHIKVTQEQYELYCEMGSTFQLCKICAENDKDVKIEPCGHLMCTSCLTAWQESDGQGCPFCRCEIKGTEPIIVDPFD
Excerpt: (§1) The assay in the absence of a Cbl-b/Cbl inhibitor, where phosphorylation of Cbl-b/Cbl by the Src kinase allows UbcH5B-Ub to bind to Cbl-b/Cbl and brings the Bodipy-Fluorescein tagged ubiquitin in proximity to the streptavidin-terbium bound to the N-terminal biotinylated Avi-tagged Cbl-b/Cbl. […] The lack of a FRET signal indicates Cbl-b/Cbl is inhibited by the Cbl-b/Cbl inhibitor.

Cbl (aa49-434) = molecular target: T2, Cbl (aa49-434) (Homo sapiens, UniProt P22681); experiment: Co-expressed Cbl with BirA biochemical assay (CBL/E2-Ub binding, HTRF); conditions: 0.6 nM Cbl co-expressed with BirA, read-out: co-express CBL/E2-Ub-binding assay IC50
T2 construct: Cbl (aa49-434, in-house); made in house
T2 sequence (P22681 49-434): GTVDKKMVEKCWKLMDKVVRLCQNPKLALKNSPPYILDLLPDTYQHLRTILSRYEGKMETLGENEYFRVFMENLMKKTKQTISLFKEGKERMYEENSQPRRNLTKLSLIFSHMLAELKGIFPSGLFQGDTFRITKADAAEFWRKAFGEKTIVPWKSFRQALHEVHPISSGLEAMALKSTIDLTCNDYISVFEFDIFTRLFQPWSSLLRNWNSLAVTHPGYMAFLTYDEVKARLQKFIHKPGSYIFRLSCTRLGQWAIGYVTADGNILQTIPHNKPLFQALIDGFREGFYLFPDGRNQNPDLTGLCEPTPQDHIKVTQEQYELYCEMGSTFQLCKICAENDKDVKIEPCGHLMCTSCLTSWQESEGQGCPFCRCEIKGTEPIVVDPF
Excerpt: as §1

`C[C@H]1CCCN(Cc2cc(C(=O)Nc3cccc([C@]4(c5nncn5C)C[C@@H](CC#N)C4)c3)nc3c2OCC3(C)C)C1` [Compound C10, 3,3-dimethyl-7-{[(3S)-3-methylpiperidin-1-yl]methyl}-N-{3-[(1s, 3s)-3-(cyanomethyl)-1-(4-methyl-1,2,4-triazol-3-yl)cyclobutyl]phenyl}-2H-furo[3,2-b]pyridine-5-carboxamide] was tested. Which IC50 (Cbl-b (aa36-427)) did it give?
Its IC50 is 2.3 nM.

What about the IC50 (Cbl (aa49-434)) of the same compound?
Its IC50 is 26.6 nM.

What does the source list for `C[C@H]1CCCN(Cc2cc(C(=O)Nc3cccc([C@]4(Cc5nncn5C)C[C@@H](C#N)C4)c3)nc3c2OCC3(C)C)C1` [Compound C11, 3,3-dimethyl-7-{[(3S)-3-methylpiperidin-1-yl]methyl}-N-{3-[(1r, 3r)-3-cyano-1-[(4-methyl-1,2,4-triazol-3-yl)methyl]cyclobutyl]phenyl}-2H-furo[3,2-b]pyridine-5-carboxamide]?
IC50 (Cbl-b (aa36-427)): 0.8 nM; IC50 (Cbl (aa49-434)): 1.5 nM

What does the source list for `C[C@H]1CCCN(Cc2cc(C(=O)Nc3cccc([C@]4(Cc5nncn5C)C[C@@H](C#N)C4)c3)nc3c2NCC3(C)C)C1` [Compound C12, 3,3-dimethyl-7-{[(3S)-3-methylpiperidin-1-yl]methyl}-N-{3-[(1r, 3r)-3-cyano-1-[(4-methyl-1,2,4-triazol-3-yl)methyl]cyclobutyl]phenyl}-1H,2H-pyrrolo[3,2-b]pyridine-5-carboxamide]?
IC50 (Cbl-b (aa36-427)): 1.4 nM; IC50 (Cbl (aa49-434)): 1.3 nM

How did the IC50 (Cbl-b (aa36-427)) turn out when `C[C@H]1CCCN(Cc2cc(C(=O)Nc3cccc([C@]4(c5nncn5C)C[C@@H](CC#N)C4)c3)nc3c2NCC3(C)C)C1` [Compound C13, 3,3-dimethyl-7-{[(3S)-3-methylpiperidin-1-yl]methyl}-N-{3-[(1s, 3s)-3-(cyanomethyl)-1-(4-methyl-1,2,4-triazol-3-yl)cyclobutyl]phenyl}-1H,2H-pyrrolo[3,2-b]pyridine-5-carboxamide] was run?
The IC50 was 1.1 nM.

And the IC50 (Cbl (aa49-434))?
The IC50 was 9.2 nM.

With `Cn1cnnc1[C@]1(c2cccc(NC(=O)c3cc(CNCC4CCCCC4)c4c(n3)C(C)(C)CC4)c2)C[C@H](CC#N)C1` [Compound C14, N-(3-((1s, 3s)-3-(cyanomethyl)-1-(4-methyl-4H-1,2,4-triazol-3-yl)cyclobutyl)phenyl)-4-(((cyclohexylmethyl)amino)methyl)-7,7-dimethyl-6,7-dihydro-5H-cyclopenta[b]pyridine-2-carboxamide] as the compound, how does the IC50 (Cbl-b (aa36-427)) read?
Its IC50 is 2 nM.

And the IC50 (Cbl (aa49-434))?
The IC50 was 6.6 nM.

Which IC50 (Cbl-b (aa36-427)) does the source give for `Cn1cnnc1C[C@]1(c2cccc(NC(=O)c3cc(CNCC4CCCC(F)(F)C4)c4c(n3)C(C)(C)CC4)c2)C[C@H](C#N)C1` (some centres unmarked) [Compound C15, N-(3-((1r, 3r)-3-cyano-1-((4-methyl-4H-1,2,4-triazol-3-yl)methyl)cyclobutyl)phenyl)-4-((((3,3-difluorocyclohexyl)methyl)amino)methyl)-7,7-dimethyl-6,7-dihydro-5H-cyclopenta[b]pyridine-2-carboxamide] here?
The IC50 was 1.8 nM.

And the IC50 (Cbl (aa49-434))?
Its IC50 is 5.2 nM.

`Cn1cnnc1[C@]1(c2cccc(NC(=O)c3cc(CNCC4CCC(F)(F)C4)c4c(n3)C(C)(C)CC4)c2)C[C@H](CC#N)C1` (some centres unmarked) [Compound C16, N-(3-((1s, 3s)-3-(cyanomethyl)-1-(4-methyl-4H-1,2,4-triazol-3-yl)cyclobutyl)phenyl)-4-((((3,3-difluorocyclopentyl)methyl)amino)methyl)-7,7-dimethyl-6,7-dihydro-5H-cyclopenta[b]pyridine-2-carboxamide] was tested. Which IC50 (Cbl-b (aa36-427)) did it give?
The IC50 was 1.7 nM.

And the IC50 (Cbl (aa49-434))?
Its IC50 is 5.3 nM.

With `C[C@H]1CCCN(Cc2cc(C(=O)Nc3cccc([C@]4(Cc5nncn5C)C[C@@H](C#N)C4)c3)nc3c2NCC32CC2)C1` [Compound C17, N-(3-((1r,3S)-3-cyano-1-((4-methyl-4H-1,2,4-triazol-3-yl)methyl)cyclobutyl)phenyl)-7′-(((S)-3-methylpiperidin-1-yl)methyl)-1′,2′-dihydrospiro[cyclopropane-1,3′-pyrrolo[3,2-b]pyridine]-5′-carboxamide] as the compound, how does the IC50 (Cbl-b (aa36-427)) read?
The IC50 was 1.5 nM.

What about the IC50 (Cbl (aa49-434)) of the same compound?
Its IC50 is 1.1 nM.

With `C[C@H]1CCCN(Cc2cc(C(=O)Nc3cccc([C@]4(Cc5nncn5C)C[C@H](C#N)C4)c3)nc3c2CCC3(C)C)C1` [Compound C18, N-(3-((1s,3R)-3-cyano-1-((4-methyl-4H-1,2,4-triazol-3-yl)methyl)cyclobutyl)phenyl)-7,7-dimethyl-4-(((S)-3-methylpiperidin-1-yl)methyl)-6,7-dihydro-5H-cyclopenta[b]pyridine-2-carboxamide] as the compound, how does the IC50 (Cbl-b (aa36-427)) read?
Its IC50 is 1.4 nM.

And the IC50 (Cbl (aa49-434))?
Its IC50 is 3.1 nM.

What does the source list for `C[C@H]1CCCN(Cc2cc(C(=O)Nc3cccc([C@]4(c5nncn5C)C[C@@H](CC#N)C4)c3)nc3c2NCC32CC2)C1` [Compound C19, N-(3-((1s,3R)-3-(cyanomethyl)-1-(4-methyl-4H-1,2,4-triazol-3yl)cyclobutyl)phenyl)-7′-(((S)-3-methylpiperidin-1-yl)methyl)-1′,2′-dihydrospiro[cyclopropane-1,3′-pyrrolo[3,2-b]pyridine]-5′-carboxamide]?
IC50 (Cbl-b (aa36-427)): 2.7 nM; IC50 (Cbl (aa49-434)): 6 nM

What does the source list for `Cn1cnnc1[C@]1(c2cccc(NC(=O)c3cc(CNCC4CCC(F)(F)CC4)c4c(n3)C(C)(C)CO4)c2)C[C@H](CC#N)C1` [Compound C20, N-(3-((1s, 3s)-3-(cyanomethyl)-1-(4-methyl-4H-1,2,4-triazol-3-yl)cyclobutyl)phenyl)-7-((((4,4-difluorocyclohexyl)methyl)amino)methyl)-3,3-dimethyl-2,3-dihydrofuro[3,2-b]pyridine-5-carboxamide]?
IC50 (Cbl-b (aa36-427)): 6.9 nM; IC50 (Cbl (aa49-434)): 79 nM

Which results are given for `Cn1cnnc1[C@]1(c2cccc(NC(=O)c3cc(CNC4(C)CCC4)c4c(n3)C(C)(C)CN4)c2)C[C@H](CC#N)C1` [Compound C21, N-(3-((1s, 3s)-3-(cyanomethyl)-1-(4-methyl-4H-1,2,4-triazol-3-yl)cyclobutyl)phenyl)-3,3-dimethyl-7-(((1-methylcyclobutyl)amino)methyl)-2,3-dihydro-1H-pyrrolo[3,2-b]pyridine-5-carboxamido]?
IC50 (Cbl-b (aa36-427)): 1.8 nM; IC50 (Cbl (aa49-434)): 17.7 nM

Which results are given for `Cn1cnnc1[C@]1(c2cccc(NC(=O)c3cc(CNCC4(C)CCCC4)c4c(n3)C(C)(C)CN4)c2)C[C@H](CC#N)C1` [Compound C22, 3,3-dimethyl-7-({[(1-methylcyclopentyl)methyl]amino}methyl)-N-{3-[(1s, 3s)-3-(cyanomethyl)-1-(4-methyl-1,2,4-triazol-3-yl)cyclobutyl]phenyl}-1H,2H-pyrrolo[3,2-b]pyridine-5-carboxamide]?
IC50 (Cbl-b (aa36-427)): 1.4 nM; IC50 (Cbl (aa49-434)): 6.1 nM

Which IC50 (Cbl-b (aa36-427)) does the source give for `Cn1cnnc1[C@]1(c2cccc(NC(=O)c3cc(CNC4(C)CCC4)c4c(n3)C(C)(C)CO4)c2)C[C@H](CC#N)C1` [Compound C23, N-(3-((1s, 3s)-3-(cyanomethyl)-1-(4-methyl-4H-1,2,4-triazol-3-yl)cyclobutyl)phenyl)-3,3-dimethyl-7-(((1-methylcyclobutyl)amino)methyl)-2,3-dihydrofuro[3,2-b]pyridine-5-carboxamide] here?
The IC50 was 6.3 nM.

What about the IC50 (Cbl (aa49-434)) of the same compound?
The IC50 was 100 nM.

Which results are given for `Cn1cnnc1[C@]1(c2cccc(NC(=O)c3cc(CNC4(C)CC4)c4c(n3)C(C)(C)CC4)c2)C[C@H](CC#N)C1` [Compound C24, N-(3-((1s, 3s)-3-(cyanomethyl)-1-(4-methyl-4H-1,2,4-triazol-3-yl)cyclobutyl)phenyl)-7,7-dimethyl-4(((1methylcyclopropyl)amino)methyl)-6,7-dihydro-5H-cyclopenta[b]pyridine-2-carboxamide]?
IC50 (Cbl-b (aa36-427)): 1.6 nM; IC50 (Cbl (aa49-434)): 10.4 nM

`Cn1cnnc1[C@]1(c2cccc(NC(=O)c3cc(CNCC4(C)CCC4)c4c(n3)C(C)(C)CO4)c2)C[C@H](CC#N)C1` [Compound C25, N-(3-((1s, 3s)-3-(cyanomethyl)-1-(4-methyl-4H-1,2,4-triazol-3-yl)cyclobutyl)phenyl)-3,3-dimethyl-7-((((1-methylcyclobutyl)methyl)amino)methyl)-2,3-dihydrofuro[3,2-b]pyridine-5-carboxamide] was tested. Which IC50 (Cbl-b (aa36-427)) did it give?
Its IC50 is 2.8 nM.

And the IC50 (Cbl (aa49-434))?
The IC50 was 49.5 nM.

What does the source list for `C[C@H](NCc1cc(C(=O)Nc2cccc([C@]3(c4nncn4C)C[C@@H](CC#N)C3)c2)nc2c1OCC2(C)C)C1CC1` [Compound C26, N-(3-((1s,3R)-3-(cyanomethyl)-1-(4-methyl-4H-1,2,4-triazol-3-yl)cyclobutyl)phenyl)-7-((((S)-1-cyclopropylethyl)amino)methyl)-3,3-dimethyl-2,3-dihydrofuro[3,2-b]pyridine-5-carboxamide]?
IC50 (Cbl-b (aa36-427)): 2.3 nM; IC50 (Cbl (aa49-434)): 25 nM

How did the IC50 (Cbl-b (aa36-427)) turn out when `C[C@H](NCc1cc(C(=O)Nc2cccc([C@]3(c4nncn4C)C[C@@H](CC#N)C3)c2)nc2c1NCC2(C)C)C1CC1` [Compound C27, 7-({[(1S)-1-cyclopropylethyl]amino}methyl)-3,3-dimethyl-N-{3-[(1s, 3s)-3-(cyanomethyl)-1-(4-methyl-1,2,4-triazol-3-yl)cyclobutyl]phenyl}-1H,2H-pyrrolo[3,2-b]pyridine-5-carboxamide] was run?
The IC50 was 1 nM.

And the IC50 (Cbl (aa49-434))?
The IC50 was 3.5 nM.

What does the source list for `C[C@H](NCc1cc(C(=O)Nc2cccc([C@]3(c4nncn4C)C[C@@H](CC#N)C3)c2)nc2c1OCC2(C)C)C1CCC1` [Compound C28, 7-({[(1S)-1-cyclobutylethyl]amino}methyl)-3,3-dimethyl-N-{3-[(1s, 3s)-3-(cyanomethyl)-1-(4-methyl-1,2,4-triazol-3-yl)cyclobutyl]phenyl}-2H-furo[3,2-b]pyridine-5-carboxamide]?
IC50 (Cbl-b (aa36-427)): 0.8 nM; IC50 (Cbl (aa49-434)): 3.3 nM
